From patent EP3959993B1, “METHOD FOR SOLVENT FREE PRODUCTION OF AROMA CONCENTRATES” (Symrise AG, priority 2020, dated 2022)

Columns and labels:
[1] = Second oil phase obtained by adding NaCl to the water phase (Example 4); assay type: physicochemical; settings: after separating oil phases I and II
Protocol: Cross linked polystyrene was used as adsorbent material. The volume flux for loading the adsorbent was 300 ml/min.
The adsorbent was heated to 150 °C, the temperature of the applied water steam was 160 °C.
The water steam flux was 10 g/min and was applied for 100 min.
The oil and water phases were separated.
A second oil phase was separated and was collected.

[2] = Influence of the amount of NaCl on the distribution between oil phase and water phase (Example 5); assay type: physicochemical

Loss in the water phase [1]	Distribution in [%] between oil phase and water phase after condensation: Oil phase ([2]; NaCl 0%) [%]	Distribution in [%] between oil phase and water phase after condensation: Water phase ([2]; NaCl 0%) [%]	Distribution in [%] between oil phase and water phase after condensation: Oil phase ([2]; NaCl 27.8 %) [%]	Distribution in [%] between oil phase and water phase after condensation: Water phase ([2]; NaCl 27.8 %) [%]	Distribution in [%] between oil phase and water phase after condensation: Oil phase ([2]; NaCl 41.67%) [%]	Distribution in [%] between oil phase and water phase after condensation: Water phase ([2]; NaCl 41.67%) [%]	Distribution in [%] between oil phase and water phase after condensation: Oil phase ([2]; NaCl 55.56 %) [%]	Distribution in [%] between oil phase and water phase after condensation: Water phase ([2]; NaCl 55.56 %) [%]	Distribution in [%] between oil phase and water phase after condensation: Oil phase ([2]; NaCl 69.44 %) [%]	Distribution in [%] between oil phase and water phase after condensation: Water phase ([2]; NaCl 69.44 %) [%]	Distribution in [%] between oil phase and water phase after condensation: Oil phase ([2]; NaCl 83.33 %) [%]	Distribution in [%] between oil phase and water phase after condensation: Water phase ([2]; NaCl 83.33 %) [%]	SMILES
2,7%	51.8	48.2	84	16	90.5	9.5	93.6	6.4	96.2	3.8	97.3	2.7	CC/C=C/CCO [trans-3-hexenol]
17,9%	28.4	71.6	39	61	63.1	36.9	69.7	30.3	68.9	31.1	82.1	17.9	CC(C)CCO [3-methyl butanol]
0,0%	100	0	100	0	100	0	100	0	100	0	100	0	CC/C=C\CCOC(C)=O [cis-3-hexenyl acetate]
1,8%	59.2	40.8	89.6	10.4	93.8	6.2	96.2	3.8	97.5	2.5	98.2	1.8	CCCCCCO [hexanol]
12,5%	35.5	64.5	63.6	36.4	71.5	28.5	76.8	23.2	83.3	16.7	87.5	12.5	CCC/C=C/C=O [trans-2-hexenal]
0,0%	70.8	29.2	96.9	3.1	98	2	100	0	100	0	100	0	CC(=O)OCCc1ccccc1 [phenylethyl acetate]
54,8%	10.4	89.6	20.8	79.2	30.3	69.7	33.2	66.8	38.9	61.1	45.2	54.8	CCOC(C)=O [ethyl acetate]
1,3%	49.4	50.6	85.1	14.9	92.9	7.1	95.4	4.6	97.7	2.3	98.7	1.3	CCCC(=O)OCC [ethyl butyrate]
	0	100	0	100	0	100	0	100	0	100	0	100	CCOC(=O)CC [ethyl propionate]

SMILES	Loss in the water phase [1]	Distribution in [%] between oil phase and water phase after condensation: Oil phase ([2]; NaCl 0%) [%]	Distribution in [%] between oil phase and water phase after condensation: Water phase ([2]; NaCl 0%) [%]	Distribution in [%] between oil phase and water phase after condensation: Oil phase ([2]; NaCl 27.8 %) [%]	Distribution in [%] between oil phase and water phase after condensation: Water phase ([2]; NaCl 27.8 %) [%]	Distribution in [%] between oil phase and water phase after condensation: Oil phase ([2]; NaCl 41.67%) [%]	Distribution in [%] between oil phase and water phase after condensation: Water phase ([2]; NaCl 41.67%) [%]	Distribution in [%] between oil phase and water phase after condensation: Oil phase ([2]; NaCl 55.56 %) [%]	Distribution in [%] between oil phase and water phase after condensation: Water phase ([2]; NaCl 55.56 %) [%]	Distribution in [%] between oil phase and water phase after condensation: Oil phase ([2]; NaCl 69.44 %) [%]	Distribution in [%] between oil phase and water phase after condensation: Water phase ([2]; NaCl 69.44 %) [%]	Distribution in [%] between oil phase and water phase after condensation: Oil phase ([2]; NaCl 83.33 %) [%]	Distribution in [%] between oil phase and water phase after condensation: Water phase ([2]; NaCl 83.33 %) [%]
O=Cc1ccccc1 [benzaldehyde]	19,2%	27	73	57.5	42.5	64.7	35.3	70.4	29.6	76.7	23.3	80.8	19.2
CCC(C)COC(C)=O (centres unmarked) [2-methyl butyl acetate]	0,2%	79.3	20.7	97.1	2.9	98.6	1.4	99.2	0.8	99.7	0.3	99.8	0.2
CCC(C)CO (centres unmarked) [2-methyl butanol]	17,3%	30.8	69.2	69	31	64.4	35.6	70.6	29.4	82.5	17.5	82.7	17.3
